Experiments:
Assay type in all cases: cell-based
Details in all cases: compounds at 50 nM and 500 nM
[1] = biological target: T1, IKZF3 (Homo sapiens, UniProt Q96SW2+Q9UKT9); assay: Western blot degradation of IKZF3 in hPBMCs (24 h)
T1 construct: The supernatant was aspirated as the extracted total cell protein; endogenous in cells; host or cells: human peripheral blood mononuclear cells (hPBMCs)
Procedure: (§1) Conventional Western blot assay was performed to evaluate the effects of the compounds of the present disclosure on the expression of target proteins in cells. • (1) Cell Seeding and Protein Harvesting: Human peripheral blood mononuclear cells (hPBMCs) at a density of 1×10^6 cells/mL were thawed according to the PBMC Recovery Protocol (Milecell Biotechnologies Inc, Shanghai). The cells were then treated with the compounds of the present disclosure (including the compounds listed in Table 1, and the Examples 1-498 compounds) at concentrations of 50 nM and 500 nM. Controls included a negative control (DMSO) and a positive control (the commercial immunomodulatory drug lenalidomide), both processed following the identical experimental protocol as the compounds of the present disclosure. After 24 hours of compounds treatment, cells were harvested and lysed in RIPA protein lysate containing protease inhibitors on ice for 30 min, followed by centrifugation. The supernatant was aspirated as the extracted total cell protein. The protein concentration of the supernatant was determined using the conventional BCA (Bicinchoninic Acid) assay. • (2) To the collected supernatant, 5×SDS sample loading buffer was added, followed by denaturation at 95 °C for 5 minutes. The denatured samples were then separated by SDS-PAGE electrophoresis on a polyacrylamide gel. Proteins were transferred to a nitrocellulose membrane (0.45 μm NC membrane), blocked with blocking buffer at room temperature for 1 hour, and subjected to antibody incubation and development procedures according to the antibody manufacturer's instructions (Cell Signaling Technology).
(§2) Half-Maximal Degradation Concentration value (the drug concentration required for degrading proteins by 50%, abbreviated as DC50) reads method: comparing the grayscale values of Western blot bands from drug-treated samples with those from blank DMSO-treated controls, and identifying the drug concentration range at which the grayscale value is half that of the DMSO-treated control bands.
(§3) DC50 values can be calculated using ImageJ software to measure grayscale values of Western blot bands from drug-treated samples. The concentration-response curve is fitted to estimate the drug concentration corresponding to half the grayscale value.
(§4) Target protein remaining (%) refers to the percentage of target protein remaining in cells after treatment with protein degrader compounds.
(§5) Calculation method for target protein remaining (%): Use ImageJ software to measure grayscale values of Western blot bands from drug (protein degrader)-treated samples. The grayscale value of drug-treated bands is divided by that of internal control protein bands, and the resulting quotient is normalized to obtain the relative percentage of remaining target protein after protein degrader treatment.
(§6) Target protein degradation rate (%)=1−target protein remaining (%).

[2] = biological target: T2, IKZF1 (Homo sapiens, UniProt Q13422+Q96SW2); assay: Western blot degradation of IKZF1 in hPBMCs (24 h)
T2 construct: The supernatant was aspirated as the extracted total cell protein; endogenous in cells; host or cells: human peripheral blood mononuclear cells (hPBMCs)
Procedure: as §1, §2, §3, §4, §5, §6

[3] = biological target: T3, IKZF2 (Homo sapiens, UniProt Q96SW2+Q9UKS7); assay: Western blot degradation of IKZF2 in hPBMCs (24 h)
T3 construct: The supernatant was aspirated as the extracted total cell protein; endogenous in cells; host or cells: human peripheral blood mononuclear cells (hPBMCs)
Procedure: as §1, §2, §3, §4, §5, §6

[4] = biological target: T4, WEE1 (Homo sapiens, UniProt P30291+Q96SW2); assay: Western blot degradation of WEE1 in hPBMCs (24 h)
T4 construct: The supernatant was aspirated as the extracted total cell protein; endogenous in cells; host or cells: human peripheral blood mononuclear cells (hPBMCs)
Procedure: as §1, §2, §3, §4, §5, §6

[5] = biological target: T5, GSPT1 (Homo sapiens, UniProt P15170+Q96SW2); assay: Western blot degradation of GSPT1 in hPBMCs (24 h)
T5 construct: The supernatant was aspirated as the extracted total cell protein; endogenous in cells; host or cells: human peripheral blood mononuclear cells (hPBMCs)
Procedure: as §1, §2, §3, §4, §5, §6

[6] = biological target: T6, CK1α (Homo sapiens, UniProt P48729+Q96SW2); assay: Western blot degradation of CK1α in hPBMCs (24 h)
T6 construct: The supernatant was aspirated as the extracted total cell protein; endogenous in cells; host or cells: human peripheral blood mononuclear cells (hPBMCs)
Procedure: as §1, §2, §3, §4, §5, §6

T1 sequence (Q9UKT9 whole entry): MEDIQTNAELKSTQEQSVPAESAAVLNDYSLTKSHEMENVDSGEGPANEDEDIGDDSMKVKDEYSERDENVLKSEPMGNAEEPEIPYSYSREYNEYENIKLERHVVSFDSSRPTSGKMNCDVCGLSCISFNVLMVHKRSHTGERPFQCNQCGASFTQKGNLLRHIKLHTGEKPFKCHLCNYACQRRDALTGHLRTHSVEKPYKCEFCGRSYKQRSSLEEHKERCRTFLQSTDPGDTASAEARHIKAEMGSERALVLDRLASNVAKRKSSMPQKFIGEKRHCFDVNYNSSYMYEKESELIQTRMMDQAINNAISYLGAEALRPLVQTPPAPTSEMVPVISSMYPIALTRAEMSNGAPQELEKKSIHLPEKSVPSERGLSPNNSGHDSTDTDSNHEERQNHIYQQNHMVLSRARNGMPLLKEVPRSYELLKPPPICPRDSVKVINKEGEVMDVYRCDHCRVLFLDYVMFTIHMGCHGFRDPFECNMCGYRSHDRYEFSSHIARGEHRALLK
T1 sequence (Q96SW2 whole entry): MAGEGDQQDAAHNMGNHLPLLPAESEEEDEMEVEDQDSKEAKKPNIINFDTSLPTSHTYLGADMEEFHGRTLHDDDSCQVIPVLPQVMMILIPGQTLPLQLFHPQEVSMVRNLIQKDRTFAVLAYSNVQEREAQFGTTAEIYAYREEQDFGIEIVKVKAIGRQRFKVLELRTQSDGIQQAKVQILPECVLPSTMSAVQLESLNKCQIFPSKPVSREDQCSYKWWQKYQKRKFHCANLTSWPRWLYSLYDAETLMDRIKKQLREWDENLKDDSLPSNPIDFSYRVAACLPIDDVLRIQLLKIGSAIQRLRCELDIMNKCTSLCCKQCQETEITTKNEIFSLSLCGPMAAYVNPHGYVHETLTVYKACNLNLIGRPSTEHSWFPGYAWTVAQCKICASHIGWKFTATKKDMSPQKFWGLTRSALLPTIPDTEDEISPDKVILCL
T1 sequence (Q16531 whole entry partner): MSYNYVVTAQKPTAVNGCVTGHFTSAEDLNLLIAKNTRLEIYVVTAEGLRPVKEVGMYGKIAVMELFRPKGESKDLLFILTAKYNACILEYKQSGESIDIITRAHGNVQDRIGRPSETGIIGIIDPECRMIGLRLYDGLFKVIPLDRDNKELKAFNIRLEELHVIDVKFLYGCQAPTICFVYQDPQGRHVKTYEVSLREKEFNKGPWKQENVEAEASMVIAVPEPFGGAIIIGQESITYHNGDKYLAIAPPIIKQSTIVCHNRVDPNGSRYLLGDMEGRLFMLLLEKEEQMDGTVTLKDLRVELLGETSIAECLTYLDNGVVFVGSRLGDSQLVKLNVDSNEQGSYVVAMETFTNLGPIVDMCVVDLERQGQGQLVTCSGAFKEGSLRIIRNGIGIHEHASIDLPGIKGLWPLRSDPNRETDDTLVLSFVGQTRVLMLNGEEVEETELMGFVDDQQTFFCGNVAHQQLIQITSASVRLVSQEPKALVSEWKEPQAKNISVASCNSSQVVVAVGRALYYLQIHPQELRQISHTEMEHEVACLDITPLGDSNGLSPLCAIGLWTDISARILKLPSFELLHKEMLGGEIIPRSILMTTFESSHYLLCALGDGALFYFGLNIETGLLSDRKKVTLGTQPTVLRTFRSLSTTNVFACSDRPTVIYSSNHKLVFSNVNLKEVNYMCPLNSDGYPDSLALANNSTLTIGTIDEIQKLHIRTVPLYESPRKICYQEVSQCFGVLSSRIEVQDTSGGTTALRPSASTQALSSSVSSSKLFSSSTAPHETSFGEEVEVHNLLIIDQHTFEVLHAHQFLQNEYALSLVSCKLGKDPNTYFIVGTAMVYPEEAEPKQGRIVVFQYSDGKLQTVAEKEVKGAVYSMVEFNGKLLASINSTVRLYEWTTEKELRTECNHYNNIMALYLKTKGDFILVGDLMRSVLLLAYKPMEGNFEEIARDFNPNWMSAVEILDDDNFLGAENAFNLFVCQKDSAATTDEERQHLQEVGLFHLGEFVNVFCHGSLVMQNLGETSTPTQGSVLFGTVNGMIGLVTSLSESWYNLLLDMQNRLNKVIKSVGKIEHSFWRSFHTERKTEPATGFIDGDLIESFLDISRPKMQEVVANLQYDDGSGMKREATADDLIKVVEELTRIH
T6 sequence (P48729 whole entry): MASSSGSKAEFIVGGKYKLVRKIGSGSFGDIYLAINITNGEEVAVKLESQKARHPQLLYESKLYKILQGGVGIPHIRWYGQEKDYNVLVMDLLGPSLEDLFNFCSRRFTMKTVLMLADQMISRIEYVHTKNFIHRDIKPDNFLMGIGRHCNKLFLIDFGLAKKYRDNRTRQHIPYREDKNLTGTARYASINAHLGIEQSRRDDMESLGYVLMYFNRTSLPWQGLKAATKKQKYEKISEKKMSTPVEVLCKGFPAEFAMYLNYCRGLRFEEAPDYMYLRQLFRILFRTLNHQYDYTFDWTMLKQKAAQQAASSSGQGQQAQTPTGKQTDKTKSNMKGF
T6 sequence (Q96SW2 whole entry): as the sequence (Q96SW2 whole entry) above
T6 sequence (Q16531 whole entry partner): as the sequence (Q16531 whole entry partner) above
T4 sequence (P30291 whole entry): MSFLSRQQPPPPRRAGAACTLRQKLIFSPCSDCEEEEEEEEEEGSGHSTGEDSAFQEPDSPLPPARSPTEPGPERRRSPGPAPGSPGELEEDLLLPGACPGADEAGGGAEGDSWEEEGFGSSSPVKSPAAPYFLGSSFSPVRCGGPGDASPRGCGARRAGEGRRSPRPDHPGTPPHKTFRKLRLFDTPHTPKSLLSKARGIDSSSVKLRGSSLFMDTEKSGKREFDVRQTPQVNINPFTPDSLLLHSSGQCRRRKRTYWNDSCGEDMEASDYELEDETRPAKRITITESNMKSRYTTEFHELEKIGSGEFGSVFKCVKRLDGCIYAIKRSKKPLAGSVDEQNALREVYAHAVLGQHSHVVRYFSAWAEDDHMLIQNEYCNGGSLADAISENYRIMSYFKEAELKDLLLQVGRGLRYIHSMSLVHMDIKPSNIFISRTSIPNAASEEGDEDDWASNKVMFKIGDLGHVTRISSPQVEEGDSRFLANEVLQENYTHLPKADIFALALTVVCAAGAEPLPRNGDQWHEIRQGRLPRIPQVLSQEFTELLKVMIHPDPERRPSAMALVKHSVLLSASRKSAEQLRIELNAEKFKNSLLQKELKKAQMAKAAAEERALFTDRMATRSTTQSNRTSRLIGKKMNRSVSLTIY
T4 sequence (Q96SW2 whole entry): as the sequence (Q96SW2 whole entry) above
T4 sequence (Q16531 whole entry partner): as the sequence (Q16531 whole entry partner) above
T5 sequence (P15170 whole entry): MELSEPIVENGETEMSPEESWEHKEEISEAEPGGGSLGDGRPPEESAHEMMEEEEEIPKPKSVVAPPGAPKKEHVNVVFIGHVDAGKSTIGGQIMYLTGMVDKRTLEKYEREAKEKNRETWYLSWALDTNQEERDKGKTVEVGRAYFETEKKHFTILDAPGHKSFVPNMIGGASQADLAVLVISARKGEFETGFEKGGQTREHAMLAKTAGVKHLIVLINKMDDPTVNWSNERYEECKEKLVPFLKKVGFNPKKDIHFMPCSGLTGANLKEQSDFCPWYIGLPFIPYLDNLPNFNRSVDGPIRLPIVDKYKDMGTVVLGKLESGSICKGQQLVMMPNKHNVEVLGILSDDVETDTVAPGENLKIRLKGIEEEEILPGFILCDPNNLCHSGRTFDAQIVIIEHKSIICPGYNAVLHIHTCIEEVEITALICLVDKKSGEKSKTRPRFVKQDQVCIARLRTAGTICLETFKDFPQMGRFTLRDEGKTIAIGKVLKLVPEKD
T5 sequence (Q96SW2 whole entry): as the sequence (Q96SW2 whole entry) above
T5 sequence (Q16531 whole entry partner): as the sequence (Q16531 whole entry partner) above
T3 sequence (Q9UKS7 whole entry): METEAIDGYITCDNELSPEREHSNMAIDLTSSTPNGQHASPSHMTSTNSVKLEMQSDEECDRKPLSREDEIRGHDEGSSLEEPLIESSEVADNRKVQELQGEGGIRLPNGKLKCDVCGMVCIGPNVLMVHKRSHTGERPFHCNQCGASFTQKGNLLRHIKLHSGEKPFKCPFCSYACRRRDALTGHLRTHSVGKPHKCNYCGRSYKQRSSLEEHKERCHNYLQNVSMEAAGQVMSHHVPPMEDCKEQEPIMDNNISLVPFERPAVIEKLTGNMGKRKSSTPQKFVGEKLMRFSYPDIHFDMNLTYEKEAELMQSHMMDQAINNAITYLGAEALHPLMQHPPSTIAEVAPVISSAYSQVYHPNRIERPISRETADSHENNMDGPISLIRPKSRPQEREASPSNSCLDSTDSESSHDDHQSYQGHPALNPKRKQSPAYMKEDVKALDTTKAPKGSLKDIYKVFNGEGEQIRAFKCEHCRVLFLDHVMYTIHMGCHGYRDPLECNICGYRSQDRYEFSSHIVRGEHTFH
T3 sequence (Q96SW2 whole entry): as the sequence (Q96SW2 whole entry) above
T3 sequence (Q16531 whole entry partner): as the sequence (Q16531 whole entry partner) above

## O=C1CCN(N2C(=O)c3ccc(CN4CCN(c5cccc(Cl)c5Cl)CC4)cc3C2=O)C(=O)N1 [GT-04854, 5-((4-(2,3-dichlorophenyl)piperazin-1-yl)methyl)-2-(2,4-dioxotetrahydropyrimidin-1(2H)-yl)isoindoline-1,3-dione]
[1]
  IKZF3 substrate protein remaining %: B (80%< substrate protein remaining % ≤100%)
[2]
  IKZF1 substrate protein remaining %: A (0% ≤ substrate protein remaining % ≤80%)
[3]
  IKZF2 substrate protein remaining %: A (0% ≤ substrate protein remaining % ≤80%)
[4]
  WEE1 substrate protein remaining %: A (0% ≤ substrate protein remaining % ≤80%)
[5]
  GSPT1 substrate protein remaining %: A (0% ≤ substrate protein remaining % ≤80%)
[6]
  CK1α substrate protein remaining %: B (80%< substrate protein remaining % ≤100%)

## O=C1CCN(N2Cc3cc(CN4CCC(c5noc6cc(F)ccc56)CC4)ccc3C2=O)C(=O)N1 [GT-04864, 1-(5-((4-(6-fluorobenzo[d]isoxazol-3-yl)piperidin-1-yl)methyl)-1-oxoisoindolin-2-yl)dihydropyrimidine-2,4(1H,3H)-dione]
[1]
  IKZF3 substrate protein remaining %: B (80%< substrate protein remaining % ≤100%)
[2]
  IKZF1 substrate protein remaining %: A (0% ≤ substrate protein remaining % ≤80%)
[3]
  IKZF2 substrate protein remaining %: B (80%< substrate protein remaining % ≤100%)
[4]
  WEE1 substrate protein remaining %: B (80%< substrate protein remaining % ≤100%)
[5]
  GSPT1 substrate protein remaining %: A (0% ≤ substrate protein remaining % ≤80%)
[6]
  CK1α substrate protein remaining %: B (80%< substrate protein remaining % ≤100%)

## O=C1CCN(N2Cc3cc(CN4CCN(c5nsc6ccccc56)CC4)ccc3C2=O)C(=O)N1 [GT-04865, 1-(5-((4-(benzo[d]isothiazol-3-yl)piperazin-1-yl)methyl)-1-oxoisoindolin-2-yl)dihydropyrimidine-2,4(1H,3H)-dione]
[1]
  IKZF3 substrate protein remaining %: B (80%< substrate protein remaining % ≤100%)
[2]
  IKZF1 substrate protein remaining %: A (0% ≤ substrate protein remaining % ≤80%)
[3]
  IKZF2 substrate protein remaining %: B (80%< substrate protein remaining % ≤100%)
[4]
  WEE1 substrate protein remaining %: B (80%< substrate protein remaining % ≤100%)
[5]
  GSPT1 substrate protein remaining %: A (0% ≤ substrate protein remaining % ≤80%)
[6]
  CK1α substrate protein remaining %: B (80%< substrate protein remaining % ≤100%)

## O=C1CCN(N2Cc3cc(CN4CCN(C(c5ccccc5)c5ccncc5)CC4)ccc3C2=O)C(=O)N1 (stereo not shown) [GT-04891, 1-(1-oxo-5-((4-(phenyl(pyridin-4-yl)methyl)piperazin-1-yl)methyl)isoindolin-2-yl)dihydropyrimidine-2,4(1H,3H)-dione]
[1]
  IKZF3 substrate protein remaining %: B (80%< substrate protein remaining % ≤100%)
[2]
  IKZF1 substrate protein remaining %: A (0% ≤ substrate protein remaining % ≤80%)
[3]
  IKZF2 substrate protein remaining %: A (0% ≤ substrate protein remaining % ≤80%)
[4]
  WEE1 substrate protein remaining %: B (80%< substrate protein remaining % ≤100%)
[5]
  GSPT1 substrate protein remaining %: A (0% ≤ substrate protein remaining % ≤80%)
[6]
  CK1α substrate protein remaining %: B (80%< substrate protein remaining % ≤100%)

## O=C1CCN(N2Cc3cc(CN4CCN(c5cccc(C(F)(F)F)n5)CC4)ccc3C2=O)C(=O)N1 [GT-05175, 1-(1-oxo-5-((4-(6-(trifluoromethyl)pyridin-2-yl)piperazin-1-yl)methyl)isoindolin-2-yl)dihydropyrimidine-2,4(1H,3H)-dione]
[2]
  IKZF1 substrate protein remaining %: B (80%< substrate protein remaining % ≤100%)
[3]
  IKZF2 substrate protein remaining %: B (80%< substrate protein remaining % ≤100%)
[4]
  WEE1 substrate protein remaining %: A (0% ≤ substrate protein remaining % ≤80%)
[5]
  GSPT1 substrate protein remaining %: A (0% ≤ substrate protein remaining % ≤80%)

## O=C1CCN(N2C(=O)c3ccc(CN4CCN(c5cccc(Cl)n5)CC4)cc3C2=O)C(=O)N1 [GT-05353, 5-((4-(6-chloropyridin-2-yl)piperazin-1-yl)methyl)-2-(2,4-dioxotetrahydropyrimidin-1(2H)-yl)isoindoline-1,3-dione]
[1]
  IKZF3 substrate protein remaining %: B (80%< substrate protein remaining % ≤100%)
[2]
  IKZF1 substrate protein remaining %: B (80%< substrate protein remaining % ≤100%)
[3]
  IKZF2 substrate protein remaining %: B (80%< substrate protein remaining % ≤100%)
[5]
  GSPT1 substrate protein remaining %: A (0% ≤ substrate protein remaining % ≤80%)
[6]
  CK1α substrate protein remaining %: B (80%< substrate protein remaining % ≤100%)

## O=C1CCN(N2C(=O)c3ccc(CN4CCN(c5ncccc5F)CC4)cc3C2=O)C(=O)N1 [GT-05355, 2-(2,4-dioxotetrahydropyrimidin-1(2H)-yl)-5-((4-(3-fluoropyridin-2-yl)piperazin-1-yl)methyl)isoindoline-1,3-dione]
[1]
  IKZF3 substrate protein remaining %: B (80%< substrate protein remaining % ≤100%)
[2]
  IKZF1 substrate protein remaining %: B (80%< substrate protein remaining % ≤100%)
[4]
  WEE1 substrate protein remaining %: B (80%< substrate protein remaining % ≤100%)
[5]
  GSPT1 substrate protein remaining %: A (0% ≤ substrate protein remaining % ≤80%)
[6]
  CK1α substrate protein remaining %: B (80%< substrate protein remaining % ≤100%)

## O=C1CCN(N2Cc3cc(CN4CCN(c5nccc(Cl)c5Br)CC4)ccc3C2=O)C(=O)N1 [GT-05432, 1-(5-((4-(3-bromo-4-chloropyridin-2-yl)piperazin-1-yl)methyl)-1-oxoisoindolin-2-yl)dihydropyrimidine-2,4(1H,3H)-dione]
[1]
  IKZF3 substrate protein remaining %: B (80%< substrate protein remaining % ≤100%)
[2]
  IKZF1 substrate protein remaining %: B (80%< substrate protein remaining % ≤100%)
[3]
  IKZF2 substrate protein remaining %: B (80%< substrate protein remaining % ≤100%)
[4]
  WEE1 substrate protein remaining %: A (0% ≤ substrate protein remaining % ≤80%)
[6]
  CK1α substrate protein remaining %: B (80%< substrate protein remaining % ≤100%)

## O=C1CCN(N2Cc3cc(CN4CCN(c5ncc(C(F)(F)F)cc5Cl)CC4)ccc3C2=O)C(=O)N1 [GT-05433, 1-(5-((4-(3-chloro-5-(trifluoromethyl)pyridin-2-yl)piperazin-1-yl)methyl)-1-oxoisoindolin-2-yl)dihydropyrimidine-2,4(1H,3H)-dione]
[1]
  IKZF3 substrate protein remaining %: B (80%< substrate protein remaining % ≤100%)
[2]
  IKZF1 substrate protein remaining %: B (80%< substrate protein remaining % ≤100%)
[4]
  WEE1 substrate protein remaining %: A (0% ≤ substrate protein remaining % ≤80%)
[5]
  GSPT1 substrate protein remaining %: A (0% ≤ substrate protein remaining % ≤80%)
[6]
  CK1α substrate protein remaining %: B (80%< substrate protein remaining % ≤100%)

## O=C1CCN(N2Cc3cc(CN4CCN(c5cccnc5)CC4)ccc3C2=O)C(=O)N1 [GT-05434, 1-(1-oxo-5-((4-(pyridin-3-yl)piperazin-1-yl)methyl)isoindolin-2-yl)dihydropyrimidine-2,4(1H,3H)-dione]
[1]
  IKZF3 substrate protein remaining %: B (80%< substrate protein remaining % ≤100%)
[2]
  IKZF1 substrate protein remaining %: B (80%< substrate protein remaining % ≤100%)
[4]
  WEE1 substrate protein remaining %: A (0% ≤ substrate protein remaining % ≤80%)
[5]
  GSPT1 substrate protein remaining %: A (0% ≤ substrate protein remaining % ≤80%)

## O=C1CCN(N2Cc3cc(CN4CCN(c5ccncc5Br)CC4)ccc3C2=O)C(=O)N1 [GT-05439, 1-(5-((4-(3-bromopyridin-4-yl)piperazin-1-yl)methyl)-1-oxoisoindolin-2-yl)dihydropyrimidine-2,4(1H,3H)-dione]
[2]
  IKZF1 substrate protein remaining %: B (80%< substrate protein remaining % ≤100%)
[3]
  IKZF2 substrate protein remaining %: B (80%< substrate protein remaining % ≤100%)
[4]
  WEE1 substrate protein remaining %: A (0% ≤ substrate protein remaining % ≤80%)

From US20260356819A1, “OXOISOINDOLINYL-SUBSTITUTED […] DERIVATIVE AND USE THEREOF” (GLUETACS THERAPEUTICS (SHANGHAI) CO., LTD., priority 2023, published 2026)
